Results reported in patent publication US20240228535A1 (priority 2022, published 2024).

The compounds below were run against SARS2 coronavirus 3CL protease (Severe acute respiratory syndrome coronavirus 2, UniProt P0DTD1) (assay: biochemical). Conditions: 5 nM enzyme, 30 min pre-incubation with compound, 15 μM peptide substrate, 4 h at room temperature; read-out: FRET Potency (nM); IC50 values in the SARS2 3CLPro FRET assay.
Work on `C[C@@H]1C[C@@H](C[C@H](NC(=O)c2cc(Cl)ccc2NC(=O)CCC(F)(F)F)C(=O)C(=O)NCc2nc[nH]n2)C(=O)N1` [Example 116, 5-chloro-N-[(1S)-1-[[(3S,5R)-5-methyl-2-oxo-pyrrolidin-3-yl]methyl]-2,3-dioxo-3-(1H-1,2,4-triazol-3-ylmethylamino)propyl]-2-(4,4,4-trifluorobutanoylamino) benzamide] yielded an IC50 of 20.9 nM. With `C[C@@H]1C[C@@H](C[C@H](NC(=O)c2cc(Cl)ccc2NC(=O)c2cccc(C(F)(F)F)c2)C(=O)C(N)=O)C(=O)N1` [Example 48, N-[(1S)-3-amino-1-[[(3S,5R)-5-methyl-2-oxo-pyrrolidin-3-yl]methyl]-2,3-dioxo-propyl]-5-chloro-2-[[3-(trifluoromethyl)benzoyl]amino]benzamide] the IC50 was 8.8 nM. For `CNC(=O)C(=O)[C@H](C[C@@H]1C[C@@H](C)NC1=O)NC(=O)c1cc(Cl)ccc1NC(=O)C(C)c1ccnc(C(F)(F)F)c1` (stereo partly drawn) [Example 227, 5-chloro-N-[(1S)-3-(methylamino)-1-[[(3S,5R)-5-methyl-2-oxo-pyrrolidin-3-yl]methyl]-2,3-dioxo-propyl]-2-[2-[2-(trifluoromethyl)-4-pyridyl]propanoylamino] benzamide], the IC50 was 7.4 nM. `CNC(=O)C(=O)[C@H](C[C@@H]1C[C@@H](C)NC1=O)NC(=O)c1cc(Cl)cnc1NC(=O)OC` [Example 119, methyl N-[5-chloro-3-[[(1S)-3-(methylamino)-1-[[(3S,5R)-5-methyl-2-oxo-pyrrolidin-3-yl]methyl]-2,3-dioxo-propyl]carbamoyl]-2-pyridyl]carbamate] showed an IC50 of 5.6 nM. With `CNC(=O)C(=O)[C@H](C[C@@H]1CCNC1=O)NC(=O)c1cc(Cl)ccc1NC(=O)OC1CC1(F)F` (stereo partly shown) [Example 156] the IC50 was 14.6 nM. Work on `C[C@@H]1C[C@@H](C[C@H](NC(=O)c2cc(Cl)cnc2NC(=O)C23CC(C(F)(F)F)(C2)C3)C(=O)C(=O)NC2CC2)C(=O)N1` [Example 5, 5-chloro-N—((S)-4-(cyclopropylamino)-1-((3S,5R)-5-methyl-2-oxopyrrolidin-3-yl)-3,4-dioxobutan-2-yl)-2-(3-(trifluoromethyl)bicyclo[1.1.1]pentane-1-carboxamido)nicotinamide] yielded an IC50 of 8.7 nM. `CNC(=O)C(=O)[C@H](C[C@@H]1C[C@@H](C)NC1=O)NC(=O)c1cc(Cl)ccc1NC(=O)C1(C(F)(F)F)CC1` [Example 34, 5-chloro-N-[(1S)-3-(methylamino)-1-[[(3S,5R)-5-methyl-2-oxo-pyrrolidin-3-yl]methyl]-2,3-dioxo-propyl]-2-[[1-(trifluoromethyl)cyclopropane-carbonyl]amino]benzamide] gave an IC50 of 11.2 nM. `CNC(=O)C(=O)[C@H](C[C@@H]1CCNC1=O)NC(=O)c1cc(F)c(F)cc1NC(=O)OC` [Example 109, methyl N-[4,5-difluoro-2-[[(1S)-3-(methylamino)-2,3-dioxo-1-[[(3S)-2-oxopyrrolidin-3-yl]methyl]propyl]carbamoyl]phenyl]carbamate] showed an IC50 of 6 nM. Compound `CNC(=O)C(=O)[C@H](C[C@@H]1C[C@@H](C)NC1=O)NC(=O)c1cc(Cl)ccc1NC(=O)C1CCC(F)(F)C1` (single isomer, unassigned) [Example 65] has an IC50 of 7.2 nM. In the case of `O=C(CCC(F)(F)F)Nc1ccc(Cl)cc1C(=O)N[C@@H](C[C@@H]1CCCNC1=O)C(=O)C(=O)NC1CC1` [Example 235, 5-chloro-N-[(1S)-3-(cyclopropylamino)-2,3-dioxo-1-[[(3S)-2-oxo-3-piperidyl]methyl]propyl]-2-(4,4,4-trifluorobutanoylamino) benzamide], the IC50 was 15.1 nM. Compound `C[C@@H]1C[C@@H](C[C@H](NC(=O)c2cc(C#N)ccc2NC(=O)c2cccc(F)c2)C(=O)C(=O)NC2CC2)C(=O)N1` [Example 32, 5-cyano-N-[(1S)-3-(cyclopropylamino)-1-[[(3S,5R)-5-methyl-2-oxo-pyrrolidin-3-yl]methyl]-2,3-dioxo-propyl]-2-[(3-fluorobenzoyl)amino] benzamide] has an IC50 of 12.3 nM. For `O=C(NC1CC1)C(=O)[C@H](C[C@@H]1CCNC1=O)NC(=O)c1cc(Cl)ccc1NC(=O)C(F)(F)F` [Example 51, 5-chloro-N-[(1S)-3-(cyclopropylamino)-2,3-dioxo-1-[[(3S)-2-oxopyrrolidin-3-yl]methyl]propyl]-2-[(2,2,2-trifluoroacetyl)amino] benzamide], the IC50 was 8.6 nM. With `C[C@@H]1C[C@@H](C[C@H](NC(=O)c2cc(Cl)ccc2NC(=O)c2cnc(C(F)(F)F)cn2)C(=O)C(=O)NC2CC2)C(=O)N1` [Example 226, N-[4-chloro-2-[[(1S)-3-(cyclopropylamino)-1-[[(3S,5R)-5-methyl-2-oxo-pyrrolidin-3-yl]methyl]-2,3-dioxo-propyl]carbamoyl]phenyl]-5-(trifluoromethyl)pyrazine-2-carboxamide] the IC50 was 19.1 nM. For `CNC(=O)C(=O)[C@H](C[C@@H]1C[C@@H](C)NC1=O)NC(=O)c1cc(Cl)ccc1NC(=O)C1CCCC1(F)F` (stereo partly drawn) [Example 184, 5-chloro-2-[(2,2-difluorocyclopentanecarbonyl)amino]-N-[(1S)-3-(methylamino)-1-[[(3S,5R)-5-methyl-2-oxo-pyrrolidin-3-yl]methyl]-2,3-dioxo-propyl]benzamide], the IC50 was 13.5 nM. With `CNC(=O)C(=O)[C@H](C[C@@H]1C[C@@H](C)NC1=O)NC(=O)c1cc(Cl)ccc1NC(=O)C1CC1C(F)(F)F` (stereo partly drawn) [Example 190, 5-chloro-N-[(1S)-3-(methylamino)-1-[[(3S,5R)-5-methyl-2-oxo-pyrrolidin-3-yl]methyl]-2,3-dioxo-propyl]-2-[[2-(trifluoromethyl)cyclopropane-carbonyl]amino]benzamide] the IC50 was 3.1 nM. In the case of `CNC(=O)C(=O)[C@H](C[C@@H]1C[C@@H](C)NC1=O)NC(=O)c1cc(Cl)ccc1NC(=O)c1cccc(C(F)(F)F)c1` [Example 45, 5-chloro-N-[(1S)-3-(methylamino)-1-[[(3S,5R)-5-methyl-2-oxo-pyrrolidin-3-yl]methyl]-2,3-dioxo-propyl]-2-[[3-(trifluoromethyl)benzoyl]amino]benzamide], the IC50 was 9.4 nM. `CNC(=O)C(=O)[C@H](C[C@@H]1C[C@@H](C)NC1=O)NC(=O)c1cc(C(F)F)ccc1NC(=O)c1ccnc(C(F)(F)F)c1` [Example 222, N-[4-(difluoromethyl)-2-[[(1S)-3-(methylamino)-1-[[(3S,5R)-5-methyl-2-oxo-pyrrolidin-3-yl]methyl]-2,3-dioxo-propyl]carbamoyl]phenyl]-2-(trifluoromethyl)pyridine-4-carboxamide] gave an IC50 of 5.2 nM. Compound `CC(C)C(=O)Nc1ccc(Cl)cc1C(=O)N[C@@H](C[C@@H]1C[C@@H](C)NC1=O)C(=O)C(=O)NC1CC1` [Example 147, 5-chloro-N-[(1S)-3-(cyclopropylamino)-1-[[(3S,5R)-5-methyl-2-oxo-pyrrolidin-3-yl]methyl]-2,3-dioxo-propyl]-2-(2-methylpropanoylamino) benzamide] has an IC50 of 11.6 nM. Compound `CNC(=O)C(=O)[C@H](C[C@@H]1C[C@@H](C)NC1=O)NC(=O)c1cc(F)ccc1NC(=O)OC` [Example 104, methyl N-[4-fluoro-2-[(1S)-3-(methylamino)-1-[[(3S,5R)-5-methyl-2-oxo-pyrrolidin-3-yl]methyl]-2,3-dioxo-propyl]carbamoyl]phenyl] carbamate] has an IC50 of 15.3 nM. Work on `C[C@@H]1C[C@@H](C[C@H](NC(=O)c2cc(Cl)ccc2NC(=O)N(C)CC2CCC(F)(F)CC2)C(=O)C(=O)NC2CC2)C(=O)N1` [Example 105, 5-chloro-N—((S)-4-(cyclopropylamino)-1-((3S,5R)-5-methyl-2-oxopyrrolidin-3-yl)-3,4-dioxobutan-2-yl)-2-(3-((4,4-difluorocyclohexyl)methyl)-3-methylureido)benzamide] yielded an IC50 of 10.9 nM. With `CNC(=O)C(=O)[C@H](C[C@@H]1C[C@@H](C)NC1=O)NC(=O)c1cc(Cl)ncc1NC(=O)OC` [Example 118] the IC50 was 23.9 nM. In the case of `O=C(Nc1ccc(Cl)cc1C(=O)N[C@@H](C[C@@H]1CCNC1=O)C(=O)C(=O)NC1CC1)OCC(F)(F)F` [Example 191, 2,2,2-trifluoroethyl N-[4-chloro-2-[[(1S)-3-(cyclopropylamino)-2,3-dioxo-1-[[(3S)-2-oxopyrrolidin-3-yl]methyl]propyl]carbamoyl]phenyl]carbamate], the IC50 was 16.1 nM. With `C[C@@H]1C[C@@H](C[C@H](NC(=O)c2cc(Cl)ccc2NC(=O)[C@H]2CN(C)C(=O)O2)C(=O)C(=O)NC2CC2)C(=O)N1` [Example 205] the IC50 was 6.6 nM. `C[C@@H]1C[C@@H](C[C@H](NC(=O)c2cc(Cl)ccc2NC(=O)C2CCOCC2)C(=O)C(=O)NC2CC2)C(=O)N1` [Example 192, N-[4-chloro-2-[[(1S)-3-(cyclopropylamino)-1-[[(3S,5R)-5-methyl-2-oxo-pyrrolidin-3-yl]methyl]-2,3-dioxo-propyl]carbamoyl]phenyl]tetra-hydropyran-4-carboxamide] gave an IC50 of 10.3 nM. In the case of `C[C@@H]1C[C@@H](C[C@H](NC(=O)c2cc(C#N)ccc2NC(=O)C23CC(F)(C2)C3)C(=O)C(=O)NC2CC2)C(=O)N1` [Example 13], the IC50 was 46.7 nM. `O=C(CCC(F)(F)F)Nc1ccc(Cl)cc1C(=O)N[C@@H](C[C@@H]1CCNC1=O)C(=O)C(=O)NC1CC1` [Example 29, 5-chloro-N-[(1S)-3-(cyclopropylamino)-2,3-dioxo-1-[[(3S)-2-oxopyrrolidin-3-yl]methyl]propyl]-2-(4,4,4-trifluorobutanoylamino) benzamide] showed an IC50 of 13.1 nM. Work on `CNC(=O)C(=O)[C@H](C[C@@H]1C[C@@H](C)NC1=O)NC(=O)c1cc(Cl)ccc1NC(=O)[C@@H](N(C)C(=O)OC)C(C)(C)C` [Example 221] yielded an IC50 of 41.9 nM. Work on `CC(OC(=O)Nc1ccc(Cl)cc1C(=O)N[C@@H](C[C@@H]1C[C@@H](C)NC1=O)C(=O)C(=O)NC1CC1)C(F)(F)F` (stereo partly drawn) [Example 211, (2,2,2-trifluoro-1-methyl-ethyl) N-[4-chloro-2-[[(1S)-3-(cyclopropylamino)-1-[[(3S,5R)-5-methyl-2-oxo-pyrrolidin-3-yl]methyl]-2,3-dioxo-propyl]carbamoyl]phenyl] carbamate] yielded an IC50 of 7.3 nM.
